# Entries after “also recorded” stand apart in the source; their conditions may differ.
# Columns and labels:
# [1] = EchoMRI carcass body composition; type: in vivo, male C57BL/6J mice
# Procedure: A second cohort of mice (n = 30) was acclimated to the laboratory conditions for 1 week prior to the onset of the experiment. Mice were housed individually and their body weight and food intake was recorded daily for a baseline period of 10 days. Given that ghrelin augments the intake of preferred diets ([28]), all mice received ad libitum access to a high-fat diet (60% of calories coming from fat), in addition to regular chow, to determine if CF801 altered dietary preference. Both chow and high-fat diet pellets were provided daily to mice ad libitum in pre-weighed amounts. Mice were then assigned to four different groups: non-injected control (NIC; n = 7), vehicle (0.9% saline) (VEH; n = 7), low-dose CF801 (11 μmol⋅kg^−1 – LD; n = 8) and high-dose CF801 (22 μmol⋅kg^−1 – HD; n = 8). Each day at 09:00 hours, mice were weighed and their food intake (both chow and high-fat diet) was recorded. After this, mice received an intraperitoneal injection of either CF801 or saline (except for the non-injected controls). Following the 13-day treatment period, half the animals in each group were sacrificed, while the remaining mice were allowed to recover from treatment. […] At this point, the remaining mice were sacrificed. Carcasses from all animals were frozen and stored at −80°C until they were scanned for body composition analyses. Immediately prior to analysis, all carcasses were thawed to room temperature and weighed in order to obtain measures relative to total carcass mass. EchoMRI carcass analyses were performed at Health Canada, Nutrition Research Division facilities using the EchoMRI-1100 (System ID EF-020) scanner. Each carcass was analyzed separately and measurements of total fat mass, total lean mass, and total water weight were obtained for each mouse.
# Given these changes in metabolic efficiency as well as the decrease in RER observed in the calorimetry experiment, we hypothesized that CF801 treatment would result in less accumulation of fat. To determine if this was the case, we conducted EchoMRI analyses on every animal post-mortem to identify differences in body composition as a function between groups. […] Furthermore, there was a significant treatment effect on the fat mass:total mass ratio following the recovery period [F(1,15) = 9.245, p < 0.05; partial eta^2 = 0.716].
# [2] = target: T1, mouse GOAT (mGOAT) (Mus musculus, UniProt P0C7A3); experiment: Fluorescence-based GOAT activity assay, mouse GOAT; type: biochemical; settings: concentrations up to 10 μM; Sf9 membranes, 1.5 μM GSSFLCAcDan, 500 μM octanoyl-CoA, 30 min pre-incubation, 1 h room temperature, pH 7.0, HPLC fluorescence, triplicate; F(3,8) = 0.139, p > 0.05
# T1 construct: made in house; host or cells: Sf9 insect cells (membrane fraction)
# T1 sequence (P0C7A3 1-435): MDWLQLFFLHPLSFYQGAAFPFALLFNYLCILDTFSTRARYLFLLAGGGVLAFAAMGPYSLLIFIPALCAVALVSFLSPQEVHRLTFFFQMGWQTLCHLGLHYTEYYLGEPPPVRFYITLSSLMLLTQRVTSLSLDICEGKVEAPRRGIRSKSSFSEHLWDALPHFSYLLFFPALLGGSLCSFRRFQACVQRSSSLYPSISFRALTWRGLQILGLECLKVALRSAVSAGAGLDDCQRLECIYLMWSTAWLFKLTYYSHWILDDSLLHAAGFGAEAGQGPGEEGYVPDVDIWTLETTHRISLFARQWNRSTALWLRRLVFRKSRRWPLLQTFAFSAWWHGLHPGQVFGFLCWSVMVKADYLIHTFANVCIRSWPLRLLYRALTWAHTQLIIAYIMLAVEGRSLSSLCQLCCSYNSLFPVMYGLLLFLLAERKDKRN
# From the text: The effects of CF801 on GOAT activity were examined using a previously validated fluorescence-based assay, and in comparison with octanoyl-(Dap3)-ghrelin (1–5)–NH2, a well characterized GOAT inhibitor ([56], [63]). In this assay, membrane fractions from Sf9 insect cells were transfected to express either human (hGOAT) or mouse GOAT (mGOAT). Membranes fractions were thawed on ice and passed through an 18-gage needle 10 times enriched using a previously described method ([63]). […] Assays were analyzed by reverse phase HPLC with fluorescence detection. […] The trials were run in triplicate, with the % activity calculated as the integrated fluorescence intensity of the octanoylated product in the CF801 or octanoyl-(Dap3)-ghrelin (1–5)–NH2 run normalized by the same quantity for the vehicle-only reaction. […]
# Figure 3 Percent activity of human GOAT (A) and mouse GOAT (B) (obtained from membrane fractions from Sf9 cells expressing hGOAT and mGOAT, resepectively) when exposed to CF801 and octanoyl-(Dap3)-ghrelin (1–5)–NH2 using a fluorescence-based microsomal assay. GSSFLCAcDan was used as an acylation target with fluorescence measured by reverse phase HPLC with fluorescence detection. […] All values are expressed as mean ± SEM. ***p < 0.001 compared to vehicle control.
sequence,measurement,setting,value
GSAFLSPEHQRK KRRQRRR-NH2 [CF801],"fat mass, low dose, after recovery","[1]; 11 μmol⋅kg^−1 i.p., 2 weeks after last treatment, vs VEH and NIC, p < 0.05",lower fat mass than mice in the VEH and NIC
same,"fat mass:lean mass ratio, low dose vs NIC","[1]; 11 μmol⋅kg^−1 i.p., following recovery period, p < 0.05",significantly lower fat mass:lean mass ratio
same,"fat mass:lean mass ratio, low dose vs VEH","[1]; 11 μmol⋅kg^−1 i.p., following recovery period, p = 0.058",tended to show a reduction in fat mass:lean mass ratio
same,"fat mass:total mass ratio, low dose vs NIC and VEH","[1]; 11 μmol⋅kg^−1 i.p., following recovery period, p's < 0.05, overall F(1,15) = 9.245, partial eta^2 = 0.716",significantly lower fat mass:total mass ratios
same,"fat mass, low dose, after treatment period","[1]; 11 μmol⋅kg^−1 i.p., vs VEH, end of treatment, p > 0.05","lower fat mass compared to VEH-treated animals, but this was not statistically significant"
same,"total fat mass, high dose, after recovery","[1]; 22 μmol⋅kg^−1 i.p., 2 weeks after treatment terminated, F(1,15) = 15.18, p < 0.05, partial eta^2 = 0.805",this decrease was more evident
same,"fat mass:lean mass ratio, high dose vs NIC and VEH","[1]; 22 μmol⋅kg^−1 i.p., following recovery period, p < 0.05, overall F(1,15) = 7.735, partial eta^2 = 0.678",significantly lower fat mass:lean mass ratio
same,"fat mass:total mass ratio, high dose vs NIC and VEH","[1]; 22 μmol⋅kg^−1 i.p., following recovery period, p's < 0.05, overall F(1,15) = 9.245, partial eta^2 = 0.716",significantly lower fat mass:total mass ratios
same,"total fat mass, high dose, after treatment period","[1]; 22 μmol⋅kg^−1 i.p., vs VEH, right after 13-day treatment, F(1,14) = 3.54, p > 0.05 as printed, partial eta^2 = 0.515",significantly lower
same,"fat mass:lean mass ratio, high dose vs low dose","[1]; 22 vs 11 μmol⋅kg^−1, following recovery period, p > 0.05",no different than animals treated with LD CF801
same,lean body mass,"[1]; between groups, p > 0.05",no differences between the groups
same,water mass,"[1]; between groups, p > 0.05",no differences between the groups
same,mGOAT activity with CF801,[2],no inhibition was seen; also recorded: no effect

# From publication PMC4585333, “Novel Regulator of Acylated Ghrelin, CF801, Reduces Weight Gain, Rebound Feeding after a Fast, and Adiposity in Mice” (Frontiers in Endocrinology, 2015)
